Data published in ChEMBL document CHEMBL1201861, “Genomics of Drug Sensitity in Cancer screening data, Wellcome Trust Sanger Institute”.
pIC50: −log10 of the molar value.

These compounds were tested on TE-441-T (assay: cells). Details: Homo sapiens, TE-441-T.
Format: functional, cell-based, Homo sapiens
Description: SANGER: Inhibition of human TE-441-T cell growth in a cell viability assay.
With `N#Cc1c(O)c2c(-c3ccc(-c4ccccc4O)cc3)csc2[nH]c1=O` the pIC50 was < 5.99.

The compounds below were run on NCI-H2087 (assay: cells). Details: Homo sapiens, NCI-H2087.
Format: functional, cell-based, Homo sapiens
Description: SANGER: Inhibition of human NCI-H2087 cell growth in a cell viability assay.
With `N#Cc1c(O)c2c(-c3ccc(-c4ccccc4O)cc3)csc2[nH]c1=O` the pIC50 was 6.67.

These compounds were tested on MDA-MB-453 (assay: cells). Details: Homo sapiens, MDA-MB-453.
Format: functional, cell-based, Homo sapiens
Description: SANGER: Inhibition of human MDA-MB-453 cell growth in a cell viability assay.
In the case of `N#Cc1c(O)c2c(-c3ccc(-c4ccccc4O)cc3)csc2[nH]c1=O`, the pIC50 was < 5.99.

The compounds below were run on LOX IMVI (assay: cells). Details: Homo sapiens, LOX IMVI.
Format: functional, cell-based, Homo sapiens
Description: SANGER: Inhibition of human LOXIMVI cell growth in a cell viability assay.
Work on `N#Cc1c(O)c2c(-c3ccc(-c4ccccc4O)cc3)csc2[nH]c1=O` yielded a pIC50 of 7.05.

These compounds were tested on PC-14 (assay: cells). Details: Homo sapiens, PC-14.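 Note: cell viability assay measuring inhibition of PC-14 cell growth.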
Format: functional, cell-based, Homo sapiens
Description: SANGER: Inhibition of human PC-14 cell growth in a cell viability assay.
`N#Cc1c(O)c2c(-c3ccc(-c4ccccc4O)cc3)csc2[nH]c1=O` was tested, and the pIC50 was < 5.99.

These compounds were tested on SKG-IIIa (assay: cells). Details: Homo sapiens, SKG-IIIa.
Format: functional, cell-based, Homo sapiens
Description: SANGER: Inhibition of human SKG-IIIa cell growth in a cell viability assay.
In the case of `N#Cc1c(O)c2c(-c3ccc(-c4ccccc4O)cc3)csc2[nH]c1=O`, the pIC50 was < 5.99.

These compounds were tested on NCI-H2347 (assay: cells). Details: Homo sapiens, NCI-H2347.
Format: functional, cell-based, Homo sapiens
Description: SANGER: Inhibition of human NCI-H2347 cell growth in a cell viability assay.
For `N#Cc1c(O)c2c(-c3ccc(-c4ccccc4O)cc3)csc2[nH]c1=O`, the pIC50 was < 5.99.

The compounds below were run on OCI-AML2 (assay: cells). Details: Homo sapiens, OCI-AML2.
Format: functional, cell-based, Homo sapiens
Description: SANGER: Inhibition of human OCI-AML2 cell growth in a cell viability assay.
`N#Cc1c(O)c2c(-c3ccc(-c4ccccc4O)cc3)csc2[nH]c1=O` was tested, and the pIC50 was 7.24.

Each compound was assayed on A 172 (assay: cells). Details: Homo sapiens, A 172.
Format: functional, cell-based, Homo sapiens
Description: SANGER: Inhibition of human A172 cell growth in a cell viability assay.
In the case of `N#Cc1c(O)c2c(-c3ccc(-c4ccccc4O)cc3)csc2[nH]c1=O`, the pIC50 was < 5.99.

Each compound was assayed on Huh-7 (assay: cells). Details: Homo sapiens, Huh-7.
Format: functional, cell-based, Homo sapiens
Description: SANGER: Inhibition of human HuH-7 cell growth in a cell viability assay.
In the case of `N#Cc1c(O)c2c(-c3ccc(-c4ccccc4O)cc3)csc2[nH]c1=O`, the pIC50 was < 5.99.

Each compound was assayed on MC-CAR (assay: cells). Details: Homo sapiens, MC-CAR.
Format: functional, cell-based, Homo sapiens
Description: SANGER: Inhibition of human MC-CAR cell growth in a cell viability assay.
`N#Cc1c(O)c2c(-c3ccc(-c4ccccc4O)cc3)csc2[nH]c1=O` gave a pIC50 of 6.77.

The compounds below were run on HOP-62 (assay: cells). Details: Homo sapiens, HOP-62.
Format: functional, cell-based, Homo sapiens
Description: SANGER: Inhibition of human HOP-62 cell growth in a cell viability assay.
With `N#Cc1c(O)c2c(-c3ccc(-c4ccccc4O)cc3)csc2[nH]c1=O` the pIC50 was < 5.99.

What follows are compounds tested on G-401 (assay: cells). Details: Homo sapiens, G-401.
Format: functional, cell-based, Homo sapiens
Description: SANGER: Inhibition of human G-401 cell growth in a cell viability assay.
With `N#Cc1c(O)c2c(-c3ccc(-c4ccccc4O)cc3)csc2[nH]c1=O` the pIC50 was < 5.99.

Each compound was assayed on CTB-1 (assay: cells). Details: Homo sapiens, CTB-1.
Format: functional, cell-based, Homo sapiens
Description: SANGER: Inhibition of human CTB-1 cell growth in a cell viability assay.
For `N#Cc1c(O)c2c(-c3ccc(-c4ccccc4O)cc3)csc2[nH]c1=O`, the pIC50 was < 5.99.

The compounds below were run on HCC1395 (assay: cells). Details: Homo sapiens, HCC1395.
Format: functional, cell-based, Homo sapiens
Description: SANGER: Inhibition of human HCC1395 cell growth in a cell viability assay.
`N#Cc1c(O)c2c(-c3ccc(-c4ccccc4O)cc3)csc2[nH]c1=O` was tested, and the pIC50 was < 5.99.

The compounds below were run on CAPAN-1 (assay: cells). Details: Homo sapiens, CAPAN-1.
Format: functional, cell-based, Homo sapiens
Description: SANGER: Inhibition of human CAPAN-1 cell growth in a cell viability assay.
Compound `N#Cc1c(O)c2c(-c3ccc(-c4ccccc4O)cc3)csc2[nH]c1=O` has a pIC50 of 6.59.

The compounds below were run on UMUC3 (assay: cells). Details: Homo sapiens, UMUC3.
Format: functional, cell-based, Homo sapiens
Description: SANGER: Inhibition of human UM-UC-3 cell growth in a cell viability assay.
In the case of `N#Cc1c(O)c2c(-c3ccc(-c4ccccc4O)cc3)csc2[nH]c1=O`, the pIC50 was < 5.99.

These compounds were tested on T98G (assay: cells). Details: Homo sapiens, T98G.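 Note: growth inhibition of T98G cells, read out by a cell viability assay.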
Format: functional, cell-based, Homo sapiens
Description: SANGER: Inhibition of human T98G cell growth in a cell viability assay.
With `N#Cc1c(O)c2c(-c3ccc(-c4ccccc4O)cc3)csc2[nH]c1=O` the pIC50 was < 5.99.

The compounds below were run on NB13 (assay: cells). Details: Homo sapiens, NB13.
Format: functional, cell-based, Homo sapiens
Description: SANGER: Inhibition of human NB13 cell growth in a cell viability assay.
With `N#Cc1c(O)c2c(-c3ccc(-c4ccccc4O)cc3)csc2[nH]c1=O` the pIC50 was < 5.99.

The compounds below were run on SBC-1 (assay: cells). Details: Homo sapiens, SBC-1.
Format: functional, cell-based, Homo sapiens
Description: SANGER: Inhibition of human SBC-1 cell growth in a cell viability assay.
`N#Cc1c(O)c2c(-c3ccc(-c4ccccc4O)cc3)csc2[nH]c1=O` was tested, and the pIC50 was < 5.99.

The compounds below were run on CAL-33 (assay: cells). Details: Homo sapiens, CAL-33.
Format: functional, cell-based, Homo sapiens
Description: SANGER: Inhibition of human CAL-33 cell growth in a cell viability assay.
In the case of `N#Cc1c(O)c2c(-c3ccc(-c4ccccc4O)cc3)csc2[nH]c1=O`, the pIC50 was < 5.99.

What follows are compounds tested on ST486 (assay: SANGER: Inhibition of human ST486 cell growth in a cell viability assay.). Details: Homo sapiens, ST486.
Format: functional, cell-based
`N#Cc1c(O)c2c(-c3ccc(-c4ccccc4O)cc3)csc2[nH]c1=O` gave a pIC50 of 6.87.

What follows are compounds tested on GI-ME-N (assay: cells). Details: Homo sapiens, GI-ME-N.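 Note: growth inhibition of human GI-ME-N cells, read out with a cell viability assay.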
Format: functional, cell-based, Homo sapiens
Description: SANGER: Inhibition of human GI-ME-N cell growth in a cell viability assay.
With `N#Cc1c(O)c2c(-c3ccc(-c4ccccc4O)cc3)csc2[nH]c1=O` the pIC50 was < 5.99.

What follows are compounds tested on MZ2-MEL (assay: cells). Details: Homo sapiens, MZ2-MEL.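 Note: growth inhibition of MZ2-MEL cells read out with a cell viability assay.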
Format: functional, cell-based, Homo sapiens
Description: SANGER: Inhibition of human MZ2-MEL cell growth in a cell viability assay.
For `N#Cc1c(O)c2c(-c3ccc(-c4ccccc4O)cc3)csc2[nH]c1=O`, the pIC50 was < 5.99.

These compounds were tested on BXPC-3 (assay: cells). Details: Homo sapiens, BXPC-3.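 Note: growth inhibition of human BxPC-3 cells, read out by a cell viability assay.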
Format: functional, cell-based, Homo sapiens
Description: SANGER: Inhibition of human BxPC-3 cell growth in a cell viability assay.
With `N#Cc1c(O)c2c(-c3ccc(-c4ccccc4O)cc3)csc2[nH]c1=O` the pIC50 was < 5.99.

The compounds below were run on LN-405 (assay: cells). Details: Homo sapiens, LN-405.
Format: functional, cell-based, Homo sapiens
Description: SANGER: Inhibition of human LN-405 cell growth in a cell viability assay.
With `N#Cc1c(O)c2c(-c3ccc(-c4ccccc4O)cc3)csc2[nH]c1=O` the pIC50 was < 5.99.

These compounds were tested on 8505C (assay: cells). Details: Homo sapiens, 8505C.
Format: functional, cell-based, Homo sapiens
Description: SANGER: Inhibition of human 8505C cell growth in a cell viability assay.
For `N#Cc1c(O)c2c(-c3ccc(-c4ccccc4O)cc3)csc2[nH]c1=O`, the pIC50 was < 5.99.

Each compound was assayed on GAK (assay: cells). Details: Homo sapiens, GAK.
Format: functional, cell-based, Homo sapiens
Description: SANGER: Inhibition of human GAK cell growth in a cell viability assay.
With `N#Cc1c(O)c2c(-c3ccc(-c4ccccc4O)cc3)csc2[nH]c1=O` the pIC50 was < 5.99.

These compounds were tested on TE-1 (assay: cells). Details: Homo sapiens, TE-1.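 Note: growth inhibition of the human TE-1 cell line, read out with a cell viability assay.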
Format: functional, cell-based, Homo sapiens
Description: SANGER: Inhibition of human TE-1 cell growth in a cell viability assay.
With `N#Cc1c(O)c2c(-c3ccc(-c4ccccc4O)cc3)csc2[nH]c1=O` the pIC50 was < 5.99.

The compounds below were run on Lu-65 (assay: cells). Details: Homo sapiens, Lu-65.
Format: functional, cell-based, Homo sapiens
Description: SANGER: Inhibition of human LU-65 cell growth in a cell viability assay.
`N#Cc1c(O)c2c(-c3ccc(-c4ccccc4O)cc3)csc2[nH]c1=O` showed a pIC50 of 6.28.

These compounds were tested on D-336MG (assay: cells). Details: Homo sapiens, D-336MG.
Format: functional, cell-based, Homo sapiens
Description: SANGER: Inhibition of human D-336MG cell growth in a cell viability assay.
`N#Cc1c(O)c2c(-c3ccc(-c4ccccc4O)cc3)csc2[nH]c1=O` was tested, and the pIC50 was < 5.99.

The compounds below were run on U-698-M (assay: cells). Details: Homo sapiens, U-698-M.
Format: functional, cell-based, Homo sapiens
Description: SANGER: Inhibition of human U-698-M cell growth in a cell viability assay.
Work on `N#Cc1c(O)c2c(-c3ccc(-c4ccccc4O)cc3)csc2[nH]c1=O` yielded a pIC50 of 6.66.

The compounds below were run on D-392MG (assay: cells). Details: Homo sapiens, D-392MG.
Format: functional, cell-based, Homo sapiens
In the case of `N#Cc1c(O)c2c(-c3ccc(-c4ccccc4O)cc3)csc2[nH]c1=O`, the pIC50 was < 5.99.

The compounds below were run on RPMI-2650 (assay: cells). Details: Homo sapiens, RPMI-2650.
Format: functional, cell-based, Homo sapiens
Description: SANGER: Inhibition of human RPMI-2650 cell growth in a cell viability assay.
For `N#Cc1c(O)c2c(-c3ccc(-c4ccccc4O)cc3)csc2[nH]c1=O`, the pIC50 was < 5.99.

Each compound was assayed on NCI-H1304 (assay: cells). Details: Homo sapiens, NCI-H1304.
Format: functional, cell-based, Homo sapiens
Description: SANGER: Inhibition of human NCI-H1304 cell growth in a cell viability assay.
In the case of `N#Cc1c(O)c2c(-c3ccc(-c4ccccc4O)cc3)csc2[nH]c1=O`, the pIC50 was 6.20.

These compounds were tested on ASPC1 (assay: cells). Details: Homo sapiens, ASPC1.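 Note: growth inhibition of AsPC-1 cells, read out with a cell viability assay.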
Format: functional, cell-based, Homo sapiens
Description: SANGER: Inhibition of human AsPC-1 cell growth in a cell viability assay.
With `N#Cc1c(O)c2c(-c3ccc(-c4ccccc4O)cc3)csc2[nH]c1=O` the pIC50 was < 5.99.

What follows are compounds tested on MKN-45 (assay: cells). Details: Homo sapiens, MKN-45.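 Note: growth inhibition of human MKN-45 cells, measured with a cell viability assay.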
Format: functional, cell-based, Homo sapiens
Description: SANGER: Inhibition of human MKN45 cell growth in a cell viability assay.
In the case of `N#Cc1c(O)c2c(-c3ccc(-c4ccccc4O)cc3)csc2[nH]c1=O`, the pIC50 was < 5.99.

Each compound was assayed on NCI-H1581 (assay: cells). Details: Homo sapiens, NCI-H1581.
Format: functional, cell-based, Homo sapiens
Description: SANGER: Inhibition of human NCI-H1581 cell growth in a cell viability assay.
With `N#Cc1c(O)c2c(-c3ccc(-c4ccccc4O)cc3)csc2[nH]c1=O` the pIC50 was < 5.99.

What follows are compounds tested on FTC-133 (assay: cells). Details: Homo sapiens, FTC-133.
Format: functional, cell-based, Homo sapiens
With `N#Cc1c(O)c2c(-c3ccc(-c4ccccc4O)cc3)csc2[nH]c1=O` the pIC50 was < 5.99.

These compounds were tested on RPMI 8402 (assay: SANGER: Inhibition of human RPMI-8402 cell growth in a cell viability assay.). Details: Homo sapiens, RPMI 8402; read-out: IC50.
Format: functional, cell-based
For `N#Cc1c(O)c2c(-c3ccc(-c4ccccc4O)cc3)csc2[nH]c1=O`, the pIC50 was 6.35.

What follows are compounds tested on NCI-H1437 (assay: cells). Details: Homo sapiens, NCI-H1437.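 Note: growth inhibition of human NCI-H1437 cells, read out by a cell viability assay.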
Format: functional, cell-based, Homo sapiens
Description: SANGER: Inhibition of human NCI-H1437 cell growth in a cell viability assay.
In the case of `N#Cc1c(O)c2c(-c3ccc(-c4ccccc4O)cc3)csc2[nH]c1=O`, the pIC50 was < 5.99.

These compounds were tested on NCI-H358 (assay: cells). Details: Homo sapiens, NCI-H358.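 Note: growth inhibition of NCI-H358 human cells, read out with a cell viability assay.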
Format: functional, cell-based, Homo sapiens
Description: SANGER: Inhibition of human NCI-H358 cell growth in a cell viability assay.
In the case of `N#Cc1c(O)c2c(-c3ccc(-c4ccccc4O)cc3)csc2[nH]c1=O`, the pIC50 was < 5.99.

The compounds below were run on NCI-H716 (assay: cells). Details: Homo sapiens, NCI-H716.
Format: functional, cell-based, Homo sapiens
Description: SANGER: Inhibition of human NCI-H716 cell growth in a cell viability assay.
For `N#Cc1c(O)c2c(-c3ccc(-c4ccccc4O)cc3)csc2[nH]c1=O`, the pIC50 was < 5.99.

These compounds were tested on KARPAS-299 (assay: cells). Details: Homo sapiens, KARPAS-299.
Format: functional, cell-based, Homo sapiens
Description: SANGER: Inhibition of human KARPAS-299 cell growth in a cell viability assay.
With `N#Cc1c(O)c2c(-c3ccc(-c4ccccc4O)cc3)csc2[nH]c1=O` the pIC50 was 6.02.

What follows are compounds tested on BC-3 (assay: cells). Details: Homo sapiens, BC-3.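 Note: cell viability assay measuring growth inhibition of human BC-3 cells.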
Format: functional, cell-based, Homo sapiens
Description: SANGER: Inhibition of human BC-3 cell growth in a cell viability assay.
In the case of `N#Cc1c(O)c2c(-c3ccc(-c4ccccc4O)cc3)csc2[nH]c1=O`, the pIC50 was < 5.99.

These compounds were tested on KU812 cell line (assay: cells). Details: Homo sapiens, KU812.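 Note: growth inhibition of KU812 cells, read out with a cell viability assay.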
Format: functional, cell-based, Homo sapiens
Description: SANGER: Inhibition of human KU812 cell growth in a cell viability assay.
`N#Cc1c(O)c2c(-c3ccc(-c4ccccc4O)cc3)csc2[nH]c1=O` was tested, and the pIC50 was < 5.99.

What follows are compounds tested on KY821 (assay: cells). Details: Homo sapiens, KY821.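 Note: growth inhibition of human KY821 cells, read out by a cell viability assay.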
Format: functional, cell-based, Homo sapiens
Description: SANGER: Inhibition of human KY821 cell growth in a cell viability assay.
`N#Cc1c(O)c2c(-c3ccc(-c4ccccc4O)cc3)csc2[nH]c1=O` was tested, and the pIC50 was 6.09.

The compounds below were run on HO-1-N-1 (assay: cells). Details: Homo sapiens, HO-1-N-1.
Format: functional, cell-based, Homo sapiens
Description: SANGER: Inhibition of human HO-1-N-1 cell growth in a cell viability assay.
With `N#Cc1c(O)c2c(-c3ccc(-c4ccccc4O)cc3)csc2[nH]c1=O` the pIC50 was < 5.99.
